Data as given in patent US5114941A, “Pyrimidinedione derivative compounds, method for preparing same, and antiarrythmic agents containing same” (Mitsui Toatsu Chemicals, Incorporated, priority 1989, dated 1992).
Where a name gives a salt, the structure may show the parent alone.

Experiments:
[1] = test system: Purkinje fiber of the right ventricular free wall; test: Influence on myocardial action potential duration time (APD75), isolated right ventricular free wall; set-up: species or system dog (hybrid adult dog); conditions: Canis lupus familiaris, 20 min, 20 minutes' incubation; for APD75 prolongation (% change vs before administration) at 1 µg/mL: dose 1.0 μg/ml; for APD75 prolongation (% change vs before administration) at 3 µg/mL: dose 3.0 μg/ml; for APD75 prolongation (% change vs before administration) at 10 µg/mL: dose 10.0 μg/ml
Experimental: (1) Influence on myocardial action potential duration time (APD75): To a hybrid adult dog, 30 mg/kg of pentobarbital was administered through a vein, and after being anesthetized, the heart was removed. Afterward, the right ventricular free wall of the heart was cut and taken out in a Tyrode solution. […] In this isolated condition, myocardial action potential duration times (APD75) were measured before and after the administration of the respective compounds prepared in the above examples in Table 1 and d-sotalol as a control medicine, and APD75 (%) was calculated from the measured results in accordance with the formula: APD75 (%)=([…]75 before administration B: APD75 after administration Here, APD75 was measured as follows: […] This measured time was regarded as the myocardial action potential duration time (APD75). […] Incidentally, this test was carried out in accordance with a Sato et al's method [H. Sato, K. Hashimoto, Arzneimeittel Forschung, 34 (1), 3a, 376-380 (1984)].

[2] = Toxicity test, mortality 24 hours after oral administration; conditions: mouse, in vivo, 300 mg/kg p.o., mice, 24 hours after administration, read-out: Mortality Rate (%)
Experimental: Each of the compounds prepared in the above-mentioned examples shown in Table 2 was administered into a mouse (ddy strain, male). In each case, the administration was effected by oral administration (p.o.) in a dose of 300 mg/kg.
A mortality rate (number of specimens: one group=2 to 4 mice) of the mice 24 hours after the administration was calculated, and the results are set forth in Table 2.

[3] = test system: ventricular muscle refractory period; test: Influence on ventricular muscle refractory period (ERP); assay type: in vivo, dog (mongrel adult dog); conditions: Canis lupus familiaris, iv, i.v., anesthetized dog, change vs before administration, read-out: ERP (%; extensibility of refractory period)
Experimental: (2) Influence on ventricular muscle refractory period:
Refractory periods were measured in the following manner before and after each of the compounds and d-sotalol shown in Table 1 was separately administered to a vein or a duodenum, and ERP (%; extensibility of refractory period) was calculated from the measured values in accordance with the following formula: […]
W: Refractory period after administration
Y: Refractory period before administration
To a mongrel adult dog, 30 mg/kg of pentobarbital was administered intravenously, and after being anesthetized, a pair of silver-silver chloride electrodes separated by 3 mm was sewn on an opened right ventricule, and electrical stimulation was given at an interval of 400 msec at a duration time of 4 msec under a current twice as much as the threshold. Afterward, a small amount of alcohol was injected into a sinus artery in order to extinguish a pacemaker activity, and the ventricular refractory period (ERP) was measured under ventricule pacing.
That is, 1 train comprised 10 stimulations, and an interval between two of the trains was usually 400 msec. At the time of the refractory period measurement, however, the above interval was shortened every 10 smec, and the interval between the trains at the time when reaction to the first stimulation of the train disappeared was regarded as the refractory period.
In this case, the electrical stimulation was fed in accordance with a program by a heart stimulation device (Diamedical Co., Ltd.; DHM-226-3).

| SMILES | APD75 prolongation (% change vs before administration) at 1 µg/mL [1] [%] | APD75 prolongation (% change vs before administration) at 3 µg/mL [1] [%] | mortality at 24 h [2] [%] | change in vivo at 0.1 mg/kg [3] [%] | change in vivo at 0.3 mg/kg [3] [%] | change in vivo at 1 mg/kg [3] [%] | change in vivo at 3 mg/kg [3] [%] | APD75 prolongation (% change vs before administration) at 10 µg/mL [1] [%] | APD75 prolongation (% change vs before administration) at 0.3 µg/mL ([1]; dose 0.3 μg/ml) [%] |
| --- | --- | --- | --- | --- | --- | --- | --- | --- | --- |
| Cc1coc2cccc(OCCCN3CCN(c4cc(=O)n(C)c(=O)n4C)CC3)c2c1=O [Compound 4, 1,3-dimethyl-6-(4-[3-(3-methyl-4-oxo-4H-1-benzopyran-5-yl)oxypropyl]piperazine-1-yl)-2,4(1H,3H)-pyrimidinedione hydrochloride] | 24 | 30 | 0 | 6.3 | 12.5 | 12.5 | 25 |  |  |
| Cc1oc2cccc(OCCCN3CCN(c4cc(=O)n(C)c(=O)n4C)CC3)c2c(=O)c1C [Compound 7, 1,3-dimethyl-6-(4-[3-(2,3-dimethyl-4-oxo-4H-1-benzopyran-5-yl)oxypropyl]piperazine-1-yl)-2,4(1H,3H)-pyrimidinedione oxalate] | 25 | 31 | 0 | 12 | 18 | 18 | 24 |  |  |
| CCN(CCCOc1cccc2occ(C)c(=O)c12)CCNc1cc(=O)n(C)c(=O)n1C [Compound 14, 1,3-dimethyl-6-(2-[N-ethyl-N-[3-(3-methyl-4-oxo-4H-1-benzopyran-5-yl)oxypropyl]amino[ethylamino)-2,4(1H,3H)-pyrimidinedione oxalate] | 4 | 17 | 0 | 6.8 | 6.8 | 10.7 | 13.6 | 25 |  |
| Cn1c(N2CCN(CCCOc3cccc4c3C(=O)CC(c3ccccc3)O4)CC2)cc(=O)n(C)c1=O (stereo not drawn) [Compound 21, 1,3-dimethyl-6-(4-[3-(2-phenyl-4-oxo-2,3-dihydro-4H-1-benzopyran-5-yl)oxypropyl]piperazine-1-yl)-2,4(1H,3H)-pyrimidinedione oxalate] | 12 | 16 | 0 | 0 | 0 | 0 | 7.7 | 20 |  |
| Cn1c(N2CCN(CCCOc3cccc4oc(-c5ccncc5)cc(=O)c34)CC2)cc(=O)n(C)c1=O [Compound 25, 1,3-dimethyl-6-(4-[3-[2-(pyridine-4-yl)-4-oxo-4H-1-benzopyran-5-yl]oxypropyl]piperazine-1-yl)-2,4(1H,3H)-pyrimidinedione dihydrochloride] | 7 | 19 | 0 | 6.3 | 6.7 | 12.5 |  | 27 |  |
| Cn1c(N2CCN(CCCOc3cccc4occc(=O)c34)CC2)cc(=O)n(C)c1=O [Compound 38, 1,3-Dimethyl-6-(4-[3-(4-oxo-4H-1-benzopyran-5-yl)oxypropyl]pyperazine-1-yl)-2,4(1H,3H)-pyrimidinedione hydrochloride] | 10 | 20 | 0 | 4.5 | 9.3 | 16 | 16 | 39 |  |
| Cn1c(N2CCN(CCCOc3cccc4oc(-c5ccccc5)cc(=O)c34)CC2)cc(=O)n(C)c1=O [Compound 39, 1,3-Dimethyl-6-(4-[3-(2-phenyl-4-oxo-4H-1-benzopyran-5-yl)oxypropyl]piperazine-1-yl)-2,4(1H,3H)-pyrimidinedione oxalate] | 7 | 20 | 0 | 7.1 | 14.3 | 14.3 | 14.3 |  |  |
| Cc1cc(=O)c2c(OCCCN3CCN(c4cc(=O)n(C)c(=O)n4C)CC3)cccc2o1 [Compound 40, 1,3-Dimethyl-6-(4-[3-(2-methyl-4-oxo-4H-1-benzopyran-5-yl)oxypropyl-piperazine-1-yl)-2,4(1H,3H)-pyrimidinedione hydrochloride] | 18 | 25 | 0 | 6.9 | 10.3 | 13.9 | 17.4 | 29 |  |
| Cn1c(N2CCN(CCCOc3ccc4c(=O)cc(-c5ccccc5)oc4c3)CC2)cc(=O)n(C)c1=O [Compound 48, 1,3-Dimethyl-6-(4-[3-(2-phenyl-4-oxo-4H-1-benzopyran-7-yl)oxypropyl]piperazine-1-yl)-2,4(1H,3H)-pyrimidinedione oxalate] | 7 | 12 |  | 0 | 0 | 6.9 | 20.4 |  |  |
| CCOC(=O)c1cc(=O)c2ccc(OCCCN3CCN(c4cc(=O)n(C)c(=O)n4C)CC3)cc2o1 [Compound 50, 1,3-Dimethyl-6-(4-[3-(2-ethoxycarbonyl-4-oxo-4H-1-benzopyran-7-yl)oxypropyl]piperazine-1-yl)-2,4-(1H,3H)-pyrimidinedione oxalate] | 7 | 14 |  | 0 | 0 | 0 | 6.3 | 28 |  |
| CC(C)NCC(O)c1ccc(NS(C)(=O)=O)cc1 (stereo not drawn) [d-sotalol, reference compound] | 3 | 7.4 |  | 1.7 | 6.7 | 8.7 | 15.5 | 15.8 | 0 |
